The target in the assay is T1, CYP3A4 (Homo sapiens, UniProt P08684).
T1 construct: recombinant; E. coli microsomes; with NADPH cytochrome P450 reductase (POR, P16435), coexpressed
Kind of assay: fluorogenic Vivid BOMR substrate assay with recombinant CYP3A4/POR E. coli microsomes. The format is biochemical.

IC50 data for one molecule are collected here from PMC8895463 (Journal of Agricultural and Food Chemistry, 2022).

T1 sequence (P08684 13-503 S18F): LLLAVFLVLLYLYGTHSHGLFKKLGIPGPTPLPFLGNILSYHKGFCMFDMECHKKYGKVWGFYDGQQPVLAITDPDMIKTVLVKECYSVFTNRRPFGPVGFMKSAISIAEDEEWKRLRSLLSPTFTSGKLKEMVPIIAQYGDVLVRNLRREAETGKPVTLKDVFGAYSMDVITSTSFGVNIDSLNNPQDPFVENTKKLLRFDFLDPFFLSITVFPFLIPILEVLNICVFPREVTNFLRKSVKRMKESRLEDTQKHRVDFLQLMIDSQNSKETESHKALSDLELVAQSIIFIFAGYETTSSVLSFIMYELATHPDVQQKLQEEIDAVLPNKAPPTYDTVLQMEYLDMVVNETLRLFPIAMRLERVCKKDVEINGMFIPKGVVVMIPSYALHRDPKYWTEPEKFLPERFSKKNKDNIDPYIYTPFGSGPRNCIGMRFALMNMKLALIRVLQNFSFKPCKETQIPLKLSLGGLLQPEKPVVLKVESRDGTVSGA
T1 sequence (P16435 2-677, further chain): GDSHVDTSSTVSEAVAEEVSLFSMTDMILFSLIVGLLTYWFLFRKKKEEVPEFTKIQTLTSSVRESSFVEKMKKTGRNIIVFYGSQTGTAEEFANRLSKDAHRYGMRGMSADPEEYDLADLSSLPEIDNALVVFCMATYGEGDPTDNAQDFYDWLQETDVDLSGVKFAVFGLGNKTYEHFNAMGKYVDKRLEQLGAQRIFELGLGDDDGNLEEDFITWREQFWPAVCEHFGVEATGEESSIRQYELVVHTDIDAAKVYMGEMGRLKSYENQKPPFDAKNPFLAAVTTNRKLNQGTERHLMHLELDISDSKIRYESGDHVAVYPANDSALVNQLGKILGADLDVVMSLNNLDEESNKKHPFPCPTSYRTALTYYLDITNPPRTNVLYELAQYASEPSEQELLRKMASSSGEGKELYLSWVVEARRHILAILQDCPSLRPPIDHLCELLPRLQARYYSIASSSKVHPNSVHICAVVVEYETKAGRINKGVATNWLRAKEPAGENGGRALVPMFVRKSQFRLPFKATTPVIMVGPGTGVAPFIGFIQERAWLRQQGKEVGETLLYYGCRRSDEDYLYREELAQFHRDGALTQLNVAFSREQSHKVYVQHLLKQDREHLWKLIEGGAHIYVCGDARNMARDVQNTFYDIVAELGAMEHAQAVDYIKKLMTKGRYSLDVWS

On to `COc1ccc(-c2cc(=O)c3c(O)cc(O)cc3o2)cc1-c1c(O)cc(O)c2c(=O)cc(-c3ccc(O)cc3)oc12` [bilobetin], for which the half-maximal inhibitory concentration (IC50) stood at 12.9 µM.
